Data from EP0260606A2, “Medicament for curing neurotic disturbance or disorder comprising sialocylglycerolipid” (MECT CORPORATION, priority 1986, dated 1988).

Tested on: rats having their sciatic nerves crushed
Assay: Curing effect on rats with crushed sciatic nerve (distance between toes, weight of musculi soleus)
Assay type: in vivo, rat
Settings: 0.5 mg/kg, ip, average ± S.D.
Protocol: The curing effect of the compound (I) of the invention on the rats having their sciatic nerves crushed, which were used as models caused by peripheral nervous disturbances, was assessed by examining (l) the change in action of the crushed hind leg and (2) the change in weight of the muscle as indicators for the modification of peripheral nerve and for the recovery course of the disturbance.
In the experiment, seven male Wister family rats (6 weeks age) were used per a group. The sciatic nerve of each rat was crushed in accordance with the method of Yamazu et al. (see Kiyomi Yamazu, Takenori Kaneko, Akifumi Kitahara and Isao Ohkawa, Journal of Japanese Pharmacological Society, 72, 259 - -268 (l976)) and in accordance with the method of Hasegawa et al. (see Kazuo Hasegawa, Naoji Mikuni and Yutaka Sakai, Journal of Japanese Pharmacological Society, 74, 72l - 734 (l978)). Specifically, under anesthesia with Pentobarbital (40 mg/kg, i.p.), the left sciatic nerve was exposed at the femur and the site 5 mm centrally from the branch portion between the N. tibialis and the N. suralis was crushed using a modified artery klemme having a width of 2 mm and gap of 0.l mm. Rats subjected to the operation were randomly dispensed to form the groups subjected to test.
The compound (I) of the invention was intraperitoneally administered one time per day from the day on which the nerve was crushed to the 22nd day. The control groups included a group administered with Mecobalamin (produced by Gedeon Richter Ltd.), a group administered with a 20% aqueous solution of propylene glycol (hereinafter referred to as 20% PG) which was used to dissolve the compound (I) of the invention, and a group administered with a 0.9% aqueous saline solution. The predetermined measurements were conducted with the lapse of time after the crushing operation (at the first, fourth, seventh, tenth, l4th, l5th, l7th, l9th 2lst and 28th days).
The distance between the toes was measured, since this is a good indicator showing the modification and recovery of the function of the nerve and the change thereof could conveniently measured with the lapse of time.
The measurement was conducted in accordance with the method of Hasegawa, (Hasegawa, K., Experientia, 34, 750 - 75l (l978)) by measuring the distance from the first toe to the fifth toe of the hind leg.
The ratio of the distance at the crushed side to the distance at the normal side was calculated as a percentage (%), the average values and the standard deviations (S.D.) being shown in Table 5.
It is known that removal of or disturbance in a certain nerve causes atrophy of the muscle controlled by the nerve, and the atrophy is gradually recovered by the recontrol by the nerve. For this reason, the quantitative change in weight of the muscle was selected as an indicator. At 28th day after the operation, the muscli soleus of both hind legs were extracted under anesthesia with Pentobarbital, and the weights of the muscles were weighed. The weight ratio of the muscli soleus at the crushed side to the muscli soleus at the normal side was calculated and represented by percentage (%).

C/C1=C2/[N-][C@H]([C@H](CC(N)=O)[C@@]2(C)CCC(=O)NC[C@@H](C)OP(=O)([O-])O[C@H]2[C@@H](O)[C@@H](n3cnc4cc(C)c(C)cc43)O[C@@H]2CO)[C@]2(C)N=C(/C(C)=C3N=C(/C=C4N=C1[C@@H](CCC(N)=O)C\4(C)C)[C@@H](CCC(N)=O)[C@]\3(C)CC(N)=O)[C@@H](CCC(N)=O)[C@]2(C)CC(N)=O.[CH3-].[Co+3] [Mecobalamine]
Recovery Rate (%) in Distance between the Fingers (17th Day): 77.0 ± 10.7% | Recovery Rate (%) in Distance between the Fingers (19th Day): 88.8 ± 5.1 % | Recovery Rate (%) in Weight of the Muscle (28th Day): 82.7 ± 5.1%
